Source: patent publication US20150355179A1, “CDKACT BIOSENSORS-FLUORESCENT POLYPEPTIDE TO PROBE THE ACTIVITY OF CDK/CYCLIN KINASES IN VITRO, IN CELLULO AND IN VIVO” (CENTRE NATIONAL DE LA RECHERCHE SCIENTIFIQUE (CNRS), priority 2012, published 2015)

Legend:
[1] = tested on: CDK/Cyclin kinase activity in HeLa cell extracts; test: Fluorescence kinase assay of CDKACTH1 in HeLa cell extracts; format: biochemical; conditions: 20 ug HeLa cell extracts, increasing concentrations of inhibitor
Method: (§1) Fluorescence kinase assays were performed in 96-well plates in a thermostated chamber (Polarstar BMG) at 30° C. in 200 ul phosphate buffer saline, pH 7.2, 150 mM NaCl, in the presence of 5 mM MgCl2, 0.5 mM ATP, except when stated otherwise. The fluorescence of Cy3-labelled CDKACTH1 with recombinant CDK/Cyclin complexes or with cell extracts was monitored over time. Changes in Cy3 fluorescence emission were recorded at 590 nm following excitation at 544 nm. In all experiments, the fluorescence of CDKACTH1-Cy3 alone was substracted from all other values. Data analysis and curve fitting were performed using the GraFit Software (Erathicus Ltd).
Cell culture media, serum and antibiotics were purchased from Invitrogen. HeLa, HS68, A549, MCF-7 and U2OS cells were cultured in DMEM+Glutamax supplemented with 10% FCS, 1 mM penicillin and 1 mM streptomycin at 37° C. in an atmosphere containing 5% CO2. HT2-19 cells, provided by Dr. A. Porter, were cultured in DMEM+NEAA, antibiotics, sodium pyruvate and glutamine, and supplemented with 10% FCS29. Cell extracts were prepared in TBS lysis buffer containing 50 mM TrisHCl, pH 7.4, 150 mM NaCl, 0.1% NP40, 0.1% Deoxycholate, 2 mM EDTA, 1 mM PMSF, Complete™ protease inhibitors (Roche), and normalized following spectrophometric dosage at 280 nm. Phosphatase inhibitors: 50 mM NaF, 40 mM β-Glycero-phosphate, 1 mM Na3VO4.
Kinase assays were performed in the same conditions as above. […] As shown in FIG. 4A-C, incubation of 20 ug HeLa cell extracts with CDKACTH1 yielded a very similar profile to that obtained with recombinant CDK/Cyclins, implying that these kinases were indeed phosphorylating the substrate sequence of the biosensor. […] Since phosphorylation events are counterbalanced by phosphatases in mammalian cell extracts, we asked whether the response measured would be further improved if phosphatase activity was blocked.

[2] = tested on: A375 rvluc2 cells; test: A375 xenograft tumour growth in NMRI nude mice; format: in vivo; conditions: Roscovitine IP 50 mg/kg/day for 7 days
[3] = target: T1, CDK4/Cyclin D (Homo sapiens, UniProt P11802); test: Real-time fluorescence kinase assay with recombinant CDK4/Cyclin D; format: biochemical; conditions: 20 uM inhibitor; 75 nM CDK4/CyclinD, 25 nM CDKACTH1-Cy3
T1 construct: made in house; host or cells: E. coli
T1 sequence (P11802 whole entry, species assumed): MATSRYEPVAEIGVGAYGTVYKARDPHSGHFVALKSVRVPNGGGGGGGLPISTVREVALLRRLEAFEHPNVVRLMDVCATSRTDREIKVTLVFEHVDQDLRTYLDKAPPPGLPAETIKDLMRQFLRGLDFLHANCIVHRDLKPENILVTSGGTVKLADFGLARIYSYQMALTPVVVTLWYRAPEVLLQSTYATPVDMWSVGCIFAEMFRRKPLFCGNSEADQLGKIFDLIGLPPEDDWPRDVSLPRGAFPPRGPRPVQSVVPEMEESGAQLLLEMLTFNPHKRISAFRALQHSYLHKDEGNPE
T1 sequence (P24385 whole entry partner, species assumed): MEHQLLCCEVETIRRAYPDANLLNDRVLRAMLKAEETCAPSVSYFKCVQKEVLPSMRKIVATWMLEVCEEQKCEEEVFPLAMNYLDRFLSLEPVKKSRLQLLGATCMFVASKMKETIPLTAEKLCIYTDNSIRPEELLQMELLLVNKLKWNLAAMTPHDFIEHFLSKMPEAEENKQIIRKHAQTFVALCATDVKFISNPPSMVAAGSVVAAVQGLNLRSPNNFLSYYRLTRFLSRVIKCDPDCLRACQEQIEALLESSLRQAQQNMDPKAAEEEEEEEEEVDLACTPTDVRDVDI
Method: as §1
To address the issue of specificity, we asked whether other kinases could phosphorylate and thereby affect the fluorescence of CDKACTH1. We first examined CDK1/Cyclin B and CDK4/Cyclin D (FIGS. 3A and B).

[4] = target: T2, CDK2/Cyclin A (Homo sapiens, UniProt P24941); test: Real-time fluorescence kinase assay with recombinant active CDK2/Cyclin A; format: biochemical
T2 construct: made in house; host or cells: E. coli
Method: (§2) In order to characterize CDKACT-H1 biosensor in vitro, we first asked whether it could be used to monitor recombinant kinase activity in a real-time assay.
as §1, §2
In vitro characterization was performed as described in Example 2. […] Assays were performed at 30° C. for 1600s. Fluorescence emission of Cy5 was measured at 675 nm following excitation at 645 nm on Polarstar™ fluorimeter.
Assays were performed at 30° C. for 1600s. Fluorescence emission of Cy3 was measured at 590 nm following excitation at 544 nm on Polarstar™ fluorimeter.

Question: Which “share of CDKACTH1 phosphorylating activity attributed to the kinases blocked by the inhibitor” value [1] does the source give for `CC(=O)c1c(C)c2cnc(Nc3ccc(N4CCNCC4)cn3)nc2n(C2CCCC2)c1=O` [PD-0332991] here?
Answer: Its value is “partial activity”.

Question: `O=C1NC(=NCc2cccs2)S/C1=C\c1ccc2ncccc2c1` [RO3306] was tested. Which “share of CDKACTH1 phosphorylating activity attributed to the kinases blocked by the inhibitor” value [1] did it give?
Answer: Its value is “larger part of activities”.

Question: What does the source list for `CC[C@H](CO)Nc1nc(NCc2ccccc2)c2ncn(C(C)C)c2n1` [roscovitine]?
Answer: size of tumours compared to vehicle ([2]; versus DMSO vehicle): 55.6%; size of tumours compared to control ([2]; versus non-treated control): 53.8%; share of CDKACTH1 phosphorylating activity attributed to the kinases blocked by the inhibitor [1]: larger part of activities; effect of inhibitor on the CDKACTH1 fluorescence signal [3]: no effect

Question: What does the source list for “CDKACTWWH1: peptide biosensor SEQ ID No 20: Pin1 WW phosphobinding domain, linker SEQ ID No 14, histone H1 substrate domain; synthesized, dye-labelled (KLPPGWEKRMSRSSGRVYYFNHITNASQWERPSGPGAGGTGGLPGGGGCSTPKKAKKL; Cy5 or Cy3 dye label; Polypeptide comprising: the WW domain of PIN1 wherein all Cystein residues are replaced by a Serine residue, a linker and the CDK substrate domain from histone H1)”?
Answer: fluorescence enhancement compared with CDKACTH1 ([4]; 25 nM Cy3-labelled sensors, 25 nM active CDK2/Cyclin A3): greater changes in fluorescence enhancement; fluorescence response to CDK2/CyclinA activity ([4]; 25 nM Cy5-CDKACT-WWH1, 25 nM active CDK2/Cyclin A3, 5 mM ATP, 20 mM MgCl2): significant changes in fluorescence enhancement
